# Measurements taken from PMC8483441 (Journal of Medicinal Chemistry, 2021).
# Square brackets hold non-standard residues; d marks the D form. Peptide text beside a SMILES is read from it. dOrn = NCCC[C@@H](N)C(=O)O; Orn = NCCC[C@H](N)C(=O)O
# Tests used:
# Shigella flexneri = settings: 50 μL from MIC wells seeded into Petri plates, 24 h; lowest concentration without detectable growth
# Method: The antibiotic activity was defined by the minimum peptide concentration where the microorganism is unable to grow. The assay was done in polypropylene 96-well plates (Greiner, Frickenhausen, Germany) to avoid peptide binding to plate wells. Peptides were dissolved in water containing 0.4% w/v bovine serum albumin (BSA) and 0.02% v/v glacial acetic acid to prevent self-aggregation, following the reference protocol by Wiegand et al.,[42] based on the classical microtiter broth dilution recommended by the National Committee of Laboratory Safety and Standards (NCLSS). Initial bacteria inoculum was adjusted to 5 × 10^5 CFU/mL in Mueller-Hinton (MH) medium. Incubations were kept at 37 °C for 24 h. Results are the average of three independent studies. […] To determine the MBC, 50 μL from all wells were seeded into Petri plates and incubated for 24 h. The MBC concentration was attributed to the lowest concentration without detectable bacterial growth for each peptide.
# A. baumannii 3880 = assay: MIC, clinical bacterial strain; assay type: cell-based
# Method: (§1) Human serum was purchased from Sigma (St Louis, USA).
# (§2) Incubations were kept at 37 °C for 24 h. Results are the average of three independent studies.
# A. baumannii 3878 = assay: MIC, clinical bacterial strain; assay type: cell-based
# Method: as §1, §2
# A. baumannii 3862 = assay: MIC, clinical bacterial strain; assay type: cell-based
# Method: as §1, §2
# P. aeruginosa 827632 = assay: MIC, clinical bacterial strain; assay type: cell-based
# Method: as §1, §2
# A. baumannii 3879 = assay: MIC, clinical bacterial strain; assay type: cell-based
# Method: as §1, §2
# P. aeruginosa 827651 = assay: MIC, clinical bacterial strain; assay type: cell-based
# Method: as §1, §2
# E. coli 116878 = assay: MIC, clinical bacterial strain; assay type: cell-based
# Method: as §1, §2
# S. typhimurium 365 = assay: MIC, clinical bacterial strain; assay type: cell-based
# Method: as §1, §2
# E. coli cf073 = assay: MIC, clinical bacterial strain; assay type: cell-based
# Method: as §1, §2
# S. typhimurium 324 = assay: MIC, clinical bacterial strain; assay type: cell-based
# Method: as §1, §2
# S. enterica = assay type: cell-based, Salmonella enterica; settings: 24 h
# Method: as §1, §2
# S. flexneri = settings: 24 h
# Excerpt: Purified horse red blood cells were acquired from Thermo Fisher Scientific (Hampshire, England). Human serum was purchased from Sigma (St Louis, USA). E. coli was obtained from the Coli Genetic Stock Center (BW25113). S. flexneri (ATCC 29903), A. baumannii (ATCC 15308), Pseudomonas sp. (ATCC 15915), and S. enterica (ATCC 14028) were obtained from the CECT (Valencia, Spain). Clinical strains were supplied by the Vall d’Hebron Hospital (Barcelona, Spain). MRC5 fibroblasts were obtained from the Cytometry and Cell Culture Facility (SCAC, UAB) and originally purchased from ATCC.
# The antibiotic activity was defined by the minimum peptide concentration where the microorganism is unable to grow. The assay was done in polypropylene 96-well plates (Greiner, Frickenhausen, Germany) to avoid peptide binding to plate wells. Peptides were dissolved in water containing 0.4% w/v bovine serum albumin (BSA) and 0.02% v/v glacial acetic acid to prevent self-aggregation, following the reference protocol by Wiegand et al.,[42] based on the classical microtiter broth dilution recommended by the […]. Initial bacteria inoculum was adjusted to 5 × 10^5 CFU/mL in Mueller-Hinton (MH) medium. Incubations were kept at 37 °C for 24 h. Results are the average of three independent studies. MIC assays in the presence of serum were performed by incubating the peptide with human serum at a 1:1 ratio. Then, 10^6 cfu/mL of Pseudomonas sp. were incubated with serial dilutions of the peptides for 4 h. To determine the MBC, 50 μL from all wells were seeded into Petri plates and incubated for 24 h. The MBC concentration was attributed to the lowest concentration without detectable bacterial growth for each peptide.
# Pseudomonas sp. [1] = assay: Minimum bactericidal concentration (MBC); assay type: cell-based; settings: 50 μL from MIC wells seeded into Petri plates, 24 h; lowest concentration without detectable growth
# Method: as §2
# horse red blood cells = assay: Hemolytic activity; assay type: cell-based; settings: red cells of horse, 4 h, 250
# Method: The peptide toxicity was determined detecting the disruption of horse red blood cells, following a previous assay report.[35] 10-fold diluted cells in PBS were centrifuged three times at 800g to eliminate the hemoglobin from disrupted cells. After the last resuspension, erythrocytes were incubated with the peptides for 4 h at 37 °C. The detection was done measuring the supernatant absorbance in a VICTOR3 multilabel plate reader (Perkin Elmer, Waltham, Massachusetts) at 540 nm in a microplate reader. Percentage of hemolysis was calculated through a pattern done with dilutions of total cell lysis done with a 1% Triton X-100 buffer. Results are the average of three independent studies.
# Salmonella enterica = assay type: cell-based; settings: 24 h
# Method: as §2
# Acinetobacter baumannii = assay type: cell-based; settings: 50 μL from MIC wells seeded into Petri plates, 24 h; lowest concentration without detectable growth
# Method: as §2
# Escherichia coli = assay type: cell-based; settings: 24 h
# Method: as §2
# A. baumannii = assay type: cell-based, Acinetobacter baumannii; settings: A. baumannii ATCC 15308; Mueller-Hinton medium, 5 × 10^5 CFU/mL, 37 °C, 24 h; average of three independent studies
# Method: as §1, §2
# E. coli = assay type: cell-based, Escherichia coli; settings: 24 h
# Method: as §1, §2
# MRC-5 cells = assay: Cytotoxicity in mammalian cells (MTT assay); assay type: cell-based; settings: 4 h
# Method: (§3) MRC-5 cells were grown in Eagle’s minimum essential medium (MEMα), supplemented with 10% fetal bovine serum (FBS). 96-well plates were seeded with 3 × 10^4 cells/well and cultured overnight in order to get cells adhered into the plate and then incubated with two-fold peptide serial dilutions. After 4 h of incubation, the medium containing the peptides was replaced by MEMα supplemented with FBS and 3-(4,5-dimethylthiazol-2-yl)-2,5-diphenyltetrazolium bromide (MTT) at 0.4 mg/mL and incubated for 150 min. Detection of formazan crystals in the living cells was done by cell disruption by addition of 200 μL of dimethyl sulfoxide (DMSO) followed by absorbance measuring at 600 nm in a Tecan Infinite F Nano+ microplate reader (Tecan, Germany). Results are the average of three independent studies.
# [2] = Cytotoxicity in mammalian cells (MTT assay); assay type: cell-based; settings: MRC-5 cytotoxicity (IC50)
# Method: as §3
# Pseudomonas sp. [3] = assay: MIC, broth microdilution; assay type: cell-based; settings: Pseudomonas sp. ATCC 15915; Mueller-Hinton medium, 5 × 10^5 CFU/mL, 37 °C, 24 h; average of three independent studies
# Method: as §1, §2
smiles,measurement,setting,value
CC[C@H](C)[C@H](NC(=O)[C@H](C)NC(=O)[C@H](CCCN)NC(=O)[C@H](CCSC)NC(=O)[C@H](C)NC(=O)[C@@H](NC(=O)[C@@H](NC(=O)[C@H](CCCN)NC(=O)[C@@H]1CCCN1C(=O)[C@H](CO)NC(=O)[C@@H](NC(=O)[C@H](Cc1c[nH]cn1)NC(=O)[C@H](CCC(N)=O)NC(=O)[C@@H](NC(=O)[C@H](C)NC(=O)[C@H](Cc1ccccc1)NC(=O)[C@H](Cc1c[nH]c2ccccc12)NC(=O)[C@H](CCC(N)=O)NC(=O)[C@H](C)NC(=O)[C@H](CCCN)NC(=O)[C@@H](NC(=O)[C@H](Cc1ccccc1)NC(=O)[C@H]1CCCN1C(=O)[C@H](N)CCCN)[C@@H](C)O)[C@@H](C)CC)[C@@H](C)CC)[C@@H](C)O)[C@@H](C)CC)C(=O)N[C@@H](CC(N)=O)C(=O)N[C@@H](CC(N)=O)C(=O)N[C@@H](Cc1ccc(O)cc1)C(=O)N[C@@H](CCCN)C(=O)N[C@@H](Cc1c[nH]c2ccccc12)C(=O)N[C@@H](CCCN)C(N)=O [peptide 7] (H-[dOrn][dP]FT[Orn]AQWFAIQHISP[Orn]TIAM[Orn]AINNY[Orn]W[Orn]-NH2),MBC Shigella flexneri,Shigella flexneri,6.25 µM
same,MIC A. baumannii 3880,A. baumannii 3880,6.25 µM
same,MIC A. baumannii 3878,A. baumannii 3878,0.78 µM
same,MIC A. baumannii 3862,A. baumannii 3862,0.78 µM
same,MIC P. aeruginosa 827632,P. aeruginosa 827632,25 µM
same,MIC A. baumannii 3879,A. baumannii 3879,1.56 µM
same,MIC P. aeruginosa 827651,P. aeruginosa 827651,100 µM
same,MIC E. coli 116878,E. coli 116878,6.25 µM
same,MIC S. typhimurium 365,S. typhimurium 365,25 µM
same,MIC E. coli cf073,E. coli cf073,3.13 µM
same,MIC S. typhimurium 324,S. typhimurium 324,25 µM
same,MIC S. enterica,S. enterica,25 µM
same,MIC S. flexneri,S. flexneri,6.25 µM
same,MBC Pseudomonas sp.,Pseudomonas sp. [1],1.56 µM
same,hemolysis % (250 μM peptide),horse red blood cells,3.6 ± 0.7%
same,MBC Salmonella enterica,Salmonella enterica,25 µM
same,MBC Acinetobacter baumannii,Acinetobacter baumannii,6.25 µM
same,MBC Escherichia coli,Escherichia coli,3.13 µM
same,MIC A. baumannii,A. baumannii,6.25 µM
same,MIC E. coli,E. coli,3.13 µM
same,IC50,MRC-5 cells,170 ± 20 µM
same,IC50,[2],≤ 230 µM
same,MIC Pseudomonas sp.,Pseudomonas sp. [3],1.56 µM
